Experimental data: patent US8507017B2, “Method for decreasing nicotine and other substance use in humans” (Arizona Health Consulting Group, LLC, priority 2003, dated 2013)

How the values were obtained:
[1] = test system: D1-type and D2-type DA receptor; conditions: cited from earlier work
α7-nAChRs = target: T1, α7-nAChRs (Homo sapiens, UniProt P36544); assay: whole-cell patch-clamp recording of nicotinic responses, α7 nAChR subtype; assay type: cell-based; conditions: THB 0.1 mM; nicotine 1.0 μM; FIG. 6B (3)
T1 construct: expressed in transfected cells; host or cells: SH-EP1 human epithelial cell line (stated generally, not specifically for α7)
T1 sequence (P36544 23-502): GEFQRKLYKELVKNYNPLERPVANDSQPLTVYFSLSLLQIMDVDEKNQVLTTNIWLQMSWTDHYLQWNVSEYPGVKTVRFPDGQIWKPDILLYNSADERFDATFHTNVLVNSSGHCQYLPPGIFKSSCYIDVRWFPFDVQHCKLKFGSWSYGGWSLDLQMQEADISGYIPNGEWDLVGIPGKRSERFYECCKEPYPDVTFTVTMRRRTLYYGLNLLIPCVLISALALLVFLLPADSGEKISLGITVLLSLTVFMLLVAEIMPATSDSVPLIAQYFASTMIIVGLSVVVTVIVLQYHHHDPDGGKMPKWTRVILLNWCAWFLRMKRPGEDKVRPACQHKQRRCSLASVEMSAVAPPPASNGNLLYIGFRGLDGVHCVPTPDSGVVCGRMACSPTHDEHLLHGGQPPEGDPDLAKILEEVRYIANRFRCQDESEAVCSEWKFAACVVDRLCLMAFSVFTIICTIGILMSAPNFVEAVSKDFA
Text: (§1) In FIGS. 6-9, whole-cell patch-clamp recording techniques in voltage-clamp mode were used to detect changes in current. Conventional whole-cell current recording coupled with techniques for fast application and removal of agonist (9 channel multi-barrel pipette), were applied in this study. Briefly, cells plated on poly-lysine-coated 35-mm culture dishes were placed on the stage of an inverted microscope (Olympus iX7, Lake Success, N.Y.) and continuously superfused with standard external solution (2 ml/min). Glass microelectrodes (3-5 MΩ resistance between pipette and extracellular solutions) were used to form tight seals (>1 GΩ) on the cell surface until suction was applied to convert to conventional whole-cell recording.
(§2) Both pipette and whole current capacitance were minimized and the series resistance was routinely compensated to 80%. The access resistance before series resistance compensation was between 10-20 MΩ. Data acquisition and analyses were done using Pclamp8 (Axon Instruments), and results were plotted using Origin 5.0 (Microcal, North Hampton, Mass.).
(§3) Data usually were fit over the 10-90% period from inward current peak until agonist exposure was terminated (5-10 sec). The experimental data are presented as means±standard errors, and comparisons of different conditions were analyzed for statistical significance using the Student's t-tests. […]

α4β2-nAChR = target: T2, α4β2-nAChR (Homo sapiens, UniProt P17787+P43681); assay: whole-cell patch-clamp recording of nicotine-induced currents, α4β2-nAChR expressed in SH-EP1 cells; assay type: cell-based; conditions: for effect on α4β2-nAChR mediated currents (peak current response, steady-state component): 0.1 mM of each Magnoliidae compound, FIG. 6A
T2 construct: expressed in transfected cells; host or cells: SH-EP1 human epithelial cell line (nAChR-null)
T2 sequence (P43681 29-627 limits assumed): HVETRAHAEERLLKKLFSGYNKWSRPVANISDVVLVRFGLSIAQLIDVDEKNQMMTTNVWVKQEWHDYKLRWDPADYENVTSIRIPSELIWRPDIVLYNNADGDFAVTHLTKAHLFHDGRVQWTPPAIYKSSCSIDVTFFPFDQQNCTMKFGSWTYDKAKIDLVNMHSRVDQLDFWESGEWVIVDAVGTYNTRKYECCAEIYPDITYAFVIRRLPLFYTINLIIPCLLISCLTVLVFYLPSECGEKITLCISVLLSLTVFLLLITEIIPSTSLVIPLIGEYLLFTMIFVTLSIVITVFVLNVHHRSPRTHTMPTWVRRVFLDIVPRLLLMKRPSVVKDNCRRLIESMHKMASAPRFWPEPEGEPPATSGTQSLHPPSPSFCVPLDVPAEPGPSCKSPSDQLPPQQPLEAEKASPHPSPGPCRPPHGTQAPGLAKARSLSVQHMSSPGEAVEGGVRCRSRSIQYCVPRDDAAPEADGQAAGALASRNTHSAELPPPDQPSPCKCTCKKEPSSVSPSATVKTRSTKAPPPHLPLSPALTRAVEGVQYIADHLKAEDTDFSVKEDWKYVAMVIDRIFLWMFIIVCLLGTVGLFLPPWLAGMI
T2 sequence (P17787 26-502): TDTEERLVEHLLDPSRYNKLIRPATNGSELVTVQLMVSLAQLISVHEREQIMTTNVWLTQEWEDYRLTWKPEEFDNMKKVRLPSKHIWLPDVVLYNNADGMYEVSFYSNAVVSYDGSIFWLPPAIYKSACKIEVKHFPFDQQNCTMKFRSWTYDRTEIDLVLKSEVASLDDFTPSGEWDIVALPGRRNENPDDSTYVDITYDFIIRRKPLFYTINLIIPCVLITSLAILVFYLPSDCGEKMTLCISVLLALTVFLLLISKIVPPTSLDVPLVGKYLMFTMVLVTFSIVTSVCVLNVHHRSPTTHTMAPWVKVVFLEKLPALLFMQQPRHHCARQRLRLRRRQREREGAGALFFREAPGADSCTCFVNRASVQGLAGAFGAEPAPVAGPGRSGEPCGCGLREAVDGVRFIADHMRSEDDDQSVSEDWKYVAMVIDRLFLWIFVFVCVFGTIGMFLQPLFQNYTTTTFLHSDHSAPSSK
Text: as §1, §2
Data usually were fit over the 10-90% period from inward current peak until agonist exposure was terminated (5-10 sec). The experimental data are presented as means±standard errors, and comparisons of different conditions were analyzed for statistical significance using the Student's t-tests. All experiments were performed at room temperature (22±1° C.). A pipette electrode solution comprising TrisPO4dibasic 110 milli-Molar (mM), Trisbase 28 mM, Ethylenediaminetetraacetate (EDTA) 11 mM, Magnesium Chloride (MgCl2) 2 mM, Calcium Chloride (CaCl2) 0.5 mM, and Sodium-Adenosine Triphosphate (Na-ATP) 4 mM, resulting in a pH of 7.3, was used.

[2] = target: T3, (Homo sapiens, UniProt P30926+P43681); assay: whole-cell patch-clamp recording of nicotinic responses, α4α4 nAChR subtype; assay type: cell-based; conditions: THB 0.1 mM; nicotine 1.0 μM; FIG. 6B (2)
T3 construct: expressed in transfected cells; host or cells: SH-EP1 human epithelial cell line
T3 sequence (P43681 27-627): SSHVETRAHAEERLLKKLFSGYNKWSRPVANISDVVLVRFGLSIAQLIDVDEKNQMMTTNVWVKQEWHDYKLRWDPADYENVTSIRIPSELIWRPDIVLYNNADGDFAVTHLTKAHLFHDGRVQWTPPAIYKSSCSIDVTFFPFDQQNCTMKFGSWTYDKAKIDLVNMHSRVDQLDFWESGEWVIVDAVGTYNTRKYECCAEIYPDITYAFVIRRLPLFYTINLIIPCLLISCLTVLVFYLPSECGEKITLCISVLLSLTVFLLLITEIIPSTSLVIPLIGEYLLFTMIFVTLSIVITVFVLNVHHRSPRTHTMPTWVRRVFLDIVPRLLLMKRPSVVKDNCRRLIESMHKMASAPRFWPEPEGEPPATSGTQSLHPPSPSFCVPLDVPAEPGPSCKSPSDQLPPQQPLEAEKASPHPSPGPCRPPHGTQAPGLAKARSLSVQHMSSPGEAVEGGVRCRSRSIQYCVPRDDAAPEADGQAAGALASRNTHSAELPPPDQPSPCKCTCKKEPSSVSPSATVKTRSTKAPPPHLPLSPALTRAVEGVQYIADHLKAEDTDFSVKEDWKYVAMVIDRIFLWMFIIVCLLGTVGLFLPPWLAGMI
T3 sequence (P30926 22-498): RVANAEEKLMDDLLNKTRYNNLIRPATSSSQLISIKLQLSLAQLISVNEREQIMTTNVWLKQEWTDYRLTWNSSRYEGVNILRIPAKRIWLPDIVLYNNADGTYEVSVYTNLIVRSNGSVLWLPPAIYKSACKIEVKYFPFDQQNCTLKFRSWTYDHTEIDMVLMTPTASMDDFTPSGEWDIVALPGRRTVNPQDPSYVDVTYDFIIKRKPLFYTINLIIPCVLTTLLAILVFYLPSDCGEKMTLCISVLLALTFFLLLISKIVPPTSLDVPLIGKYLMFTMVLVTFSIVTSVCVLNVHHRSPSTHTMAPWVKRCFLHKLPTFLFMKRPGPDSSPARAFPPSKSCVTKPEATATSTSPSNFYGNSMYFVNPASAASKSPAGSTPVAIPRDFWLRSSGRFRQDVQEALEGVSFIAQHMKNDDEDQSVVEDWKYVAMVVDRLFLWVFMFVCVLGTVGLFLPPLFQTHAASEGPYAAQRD
Text: as §1, §2, §3

D2 receptor = target: T4, D2 receptor (Rattus norvegicus, UniProt P61169); conditions: cited from earlier work
T4 construct: host or cells: normal rats, in vivo
T4 sequence (P61169 whole entry): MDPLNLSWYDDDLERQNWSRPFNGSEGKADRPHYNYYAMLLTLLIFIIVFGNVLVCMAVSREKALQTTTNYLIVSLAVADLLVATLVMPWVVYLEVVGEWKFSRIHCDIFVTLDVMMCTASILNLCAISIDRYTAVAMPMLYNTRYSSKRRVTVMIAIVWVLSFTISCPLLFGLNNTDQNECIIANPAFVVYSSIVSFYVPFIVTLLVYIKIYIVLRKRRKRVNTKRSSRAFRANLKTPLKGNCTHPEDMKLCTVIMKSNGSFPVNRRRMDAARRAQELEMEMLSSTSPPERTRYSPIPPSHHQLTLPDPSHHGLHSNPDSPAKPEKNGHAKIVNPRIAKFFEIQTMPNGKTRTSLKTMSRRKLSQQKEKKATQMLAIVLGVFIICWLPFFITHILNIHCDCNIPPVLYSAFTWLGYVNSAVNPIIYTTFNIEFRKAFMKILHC

D1 receptors = target: T5, D1 receptors (Rattus norvegicus, UniProt P18901); conditions: rats with unilateral nigral lesion (DA receptor super sensitivity in striatum); cited from earlier work
T5 construct: host or cells: rats with unilateral nigral lesion, in vivo (striatum)
T5 sequence (P18901 whole entry): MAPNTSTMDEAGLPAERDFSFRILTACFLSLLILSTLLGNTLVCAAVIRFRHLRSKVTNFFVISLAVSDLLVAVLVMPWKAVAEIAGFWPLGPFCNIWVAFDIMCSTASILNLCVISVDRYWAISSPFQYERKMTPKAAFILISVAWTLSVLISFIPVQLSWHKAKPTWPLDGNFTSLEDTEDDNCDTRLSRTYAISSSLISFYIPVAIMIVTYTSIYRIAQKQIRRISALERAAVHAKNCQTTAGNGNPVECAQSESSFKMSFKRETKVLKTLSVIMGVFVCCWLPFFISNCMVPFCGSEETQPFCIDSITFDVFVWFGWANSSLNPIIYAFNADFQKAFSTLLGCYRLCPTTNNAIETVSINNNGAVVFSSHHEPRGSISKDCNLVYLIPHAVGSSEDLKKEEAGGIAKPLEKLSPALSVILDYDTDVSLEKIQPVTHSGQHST

Structure (SMILES)	effect on D1-type and D2-type DA receptor binding [1]	effect on nicotinic response mediated by α7 subtype (α7-nAChRs)	effect on α4β2-nAChR mediated currents (peak current response, steady-state component) (α4β2-nAChR)	acute desensitization of nicotine-induced currents (α4β2-nAChR; THB 30 μM, holding potentials −40 mV and −80 mV, FIG. 9A-9B)	effect on nicotinic response mediated by α4β2 subtype (α4β2-nAChR; THB 0.1 mM, nicotine 1.0 μM, FIG. 6B (1))	effect on peak (Ip) and steady-state (Is) components of nicotinic responses at different THB concentrations (α4β2-nAChR; THB 1.0, 10, 100 μM, nicotine 1.0 μM, FIG. 7A-7C)	voltage dependence of suppression of nicotinic response (α4β2-nAChR; depending on holding potential VH)	effect on nicotinic response mediated by α4α4 subtype [2]	DA receptor characteristics in normal rats (D2 receptor)	DA receptor characteristics in rats with unilateral nigral lesion (D1 receptors)
COc1ccc2c(c1OC)CN1CCc3cc4c(cc3C1C2)OCO4 (stereo not drawn) [THB, Tetrahydroberberine]	equipotent effect	inhibitory effect occurs more predominantly in α7-nAChRs	inhibition of nAChR function	accelerates acute desensitization	inhibition of each nAChR subtype function	concentration-dependent inhibition	suppressed nicotinic response depending on VH	inhibition of each nAChR subtype function	–	–
COc1cc2c(cc1O)[C@@H]1Cc3ccc(O)c(OC)c3CN1CC2 [l-SPD, l-Stepholidine]	–	–	inhibition of nAChR function	–	–	–	–	–	characteristics of D2 receptor antagonist	acts on D1 receptors as an agonist
COc1cc2c(cc1OC)[C@@H]1Cc3ccc(OC)c(OC)c3CN1CC2 [l-THP, l-Tetrahydropalmatine]	–	–	inhibition of nAChR function	–	–	–	–	–	–	–
